Data on four molecules can be found in patent US20090156638A1, “Uses of nordihydroguaiaretic acid (NDGA) and derivatives thereof in preventing transmission of sexually transmitted diseases” (priority 2007, published 2009).

The subject of data set [1] is HSV-1. In words: Mutation-insensitivity: IC50 against HSV-1 over ten virus passages. The format is cell-based. The text has this:
In contrast, host factors, unlike viral factors, are under no selective pressure to mutate and are in general structurally invariable. […] Table 1 compares the IC50 of M4N and acyclovir for ten passages.

The next data set has as its system Sp1 enhancer sequence. The conditions noted are these: ethidium displacement; G4N concentration causing 50% reduction of DNA-ethidium fluorescence. From the text:
(§1) The […] (IE) ICP4 gene of HSV is essential for HSV replication.

Data set [2] relates to HSV-1. The conditions noted are these: for efficacy against HSV-1 cutaneous infection: day 6. As for the experimental part: The dorsal cutaneous guinea pig model system is a well-established model for HSV-1 infection.
In FIGS. 6A-6D, for topical treatment with M4N sections of shaved and depilated dorsal guinea pig skin were infected equally were infected with HSV-1.
McKrae strain). […] Treatments were administered twice daily and photogragphs were taken at day 6 post-infection. […] Regions 1 and 4 were infected with high levels of HSV-1 (1×10^8 pfu/mL), regions 2 and 5 were infected with moderate levels of HSV-1 (1×10^6 pfu/mL) and regions 3 and 6 were infected with low levels of HSV-1 (1×10^4 pfu/mL).

In the next data set the test system is HSV-2. As to the kind of experiment: Mouse vaginal model of HSV-2 infection. It is filed as in vivo, CF-1 mice. The conditions noted are these: for animals infected: 10 mice per group. As for the experimental part: The efficacies of […] (FIG. 8A) and […] (FIG. 8A) against HSV-2 in a mouse vaginal model system have also been examined. […] At the end of three days, the vaginal lavages were collected from the washings of the vagina regions. The status of the vaginal HSV-2 infection and replication were examined by their cytopathic effects on cultured human foreskin fibroblast cells. Monitoring and scoring were carried out by three persons independently.

For data set [3], the system named is HSV-1. The conditions noted are these: read-out: Inhibitory Concentration (IC50 or EC50).
Data set [4] relates to acyclovir-resistant strains of HSV-1 (HSV-1^R). The conditions noted are these: read-out: Inhibitory Concentration (IC50 or EC50).
A further data set deals with HIV-1RTMF. The conditions noted are these: read-out: Inhibitory Concentration (IC50 or EC50), H9 cells.
For a further data set, the system named is HIV-1. The conditions noted are these: read-out: Inhibitory Concentration (IC50 or EC50), Cos cells.
In a further data set the test system is SIVmac239. The conditions noted are these: read-out: Inhibitory Concentration (IC50 or EC50), 174 × CEM cells.
The subject of the next data set is HSV-1^R. The conditions noted are these: 40 μM; explanted mouse trigeminal ganglia.
Data set [5] has as its system HSV-1. The conditions noted are these: topical application for six days in guinea pigs, up to 50 mM; reference (34); cited from earlier work.
The subject of data set [6] is Sp1 transcription factor binding to the major groove of Sp1 site. To be noted: by competition for binding or altering DNA conformation.
From the text: as §1

Like-named read-outs stand apart in the source and are kept apart here.

On to `Nc1nc2c(ncn2COCCO)c(=O)[nH]1` [Acyclovir, acyclovir, reference compound], for which the IC50 in the data set with HSV-1 [1] (Human alphaherpesvirus 1, HSV-1 passage 1) is 7.54 µM; in the data set on HSV-1 [1] (Human alphaherpesvirus 1, HSV-1 passage 2), 37.8 µM; in the data set with HSV-1 [1] (Human alphaherpesvirus 1, HSV-1 passage 3) it was 88.8 µM; in the data set on HSV-1 [1] (Human alphaherpesvirus 1, HSV-1 passage 4), 138 µM; in the data set on HSV-1 [1] (Human alphaherpesvirus 1, HSV-1 passage 5) it was 111 µM; with HSV-1 [1] (Human alphaherpesvirus 1, HSV-1 passage 6) it was 131 µM. Moreover, the IC50 with HSV-1 [1] (Human alphaherpesvirus 1, HSV-1 passage 7) is 190 µM; with HSV-1 [1] (Human alphaherpesvirus 1, HSV-1 passage 8), 444 µM; in the data set with HSV-1 [1] (Human alphaherpesvirus 1, HSV-1 passage 9), 379 µM; in the data set with HSV-1 [1] (Human alphaherpesvirus 1, HSV-1 passage 10) it was 444 µM.
For `C[C@H](Cc1ccc(OC(=O)CN(C)C)c(OC(=O)CN(C)C)c1)[C@@H](C)Cc1ccc(OC(=O)CN(C)C)c(OC(=O)CN(C)C)c1` [G4N, tetra-O—(N,N-dimethyl)glycyl-nordihydroguaiaretic acid], the “apparent equilibrium binding constant (Kapp)” value in the data set on Sp1 enhancer sequence was 3e+06 M⁻¹. In addition, the “efficacy against HSV-1 cutaneous infection” value was “semi-effective” in the data set with HSV-1 [2] (5 mM topically twice daily, 1×10^8 pfu/mL McKrae); “more effective” in the data set on HSV-1 [2] (10 mM topically twice daily, 1×10^8 pfu/mL McKrae); “extremely effective” with HSV-1 [2] (150 mM topically twice a day, 1×10^4 to 1×10^8 pfu/mL). For the same molecule, the “inhibition of HSV-1 induced cutaneous lesion formation and viral shedding” value in the data set with HSV-1 [2] (topical application, guinea pig) is “effectively inhibited HSV-1 induced cutaneous lesion formation and viral shedding”. In the data set with HSV-2 (0.1 mM), this molecule yielded an average infection score of 0.5. In the data set on HSV-2 (0.1 mM), this molecule displayed an infection of approximately 12.5%. Besides, the animals infected was 1 out of 10 in the data set on HSV-2 (0.1 mM, vaginal lavage at three days); “no infections detected” with HSV-2 (10 mM); “no infections detected” in the data set on HSV-2 (100 mM). In addition, the IC50 in the data set on HSV-1 [3] (HSV-1 McKrae (Vero from row above)) stood at 4.5 µM; in the data set on HSV-1 [3] (Vero cells, HSV-1 KOS), 3.6 µM; in data set [4] (HSV-1^R F59878), 2.1 µM; in data set [4] (HSV-1^R T28387) it was 4.3 µM; in the data set with HIV-1RTMF, 12 µM; in the data set on HIV-1 it was 36 µM. Also, the IC50 with SIVmac239 amounted to 5 µM. Besides, the “decrease in HSV reactivation” value with HSV-1^R worked out at 40 μM had 67%. Further, the toxicity entry in the data set on HSV-1 [5] is recorded as “no evidence of toxicity”.
In the case of `COc1cc(CC(C)C(C)Cc2ccc(O)c(O)c2)ccc1O` (stereo not shown) [Mal.4, 3′-O-methyl nordihydroguaiaretic acid], the IC50 with HIV-1 turned out to be 25 µM.
In the case of `CC(Cc1ccc(OCCN2CCCCC2)c(OCCN2CCCCC2)c1)C(C)Cc1ccc(OCCN2CCCCC2)c(OCCN2CCCCC2)c1` (stereo not shown) [P4N, tetra-O—(N-ethylpiperidinyl)-nordihydroguaiaretic acid], the “disruption of Sp1 transcription factor binding” value in [6] was “disrupt Sp1 transcription factor binding”. Besides, in the data set with HSV-2 (10 mM), the “average scale of infection” value is 0.19 and the animals infected is 2 of 10. In the data set with HSV-2 (in PBS), the “efficacy against vaginal HSV-2 infection” value was “quite effective”.
